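All cell lines were grown in 96-well plates and treated with compound for 48 hours. TGI denotes the concentration required for complete inhibition of growth.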 Some results are limits rather than exact numbers.

The experiment relates to P388 leukemia. Description: NCI tumour cell line growth inhibition, 48 h.

On to `Nc1ccc2[nH]c3c(-c4ccccc4)nccc3c2c1`, for which the TGI was found to be 46.5 µM.

Consider `O=C(NC(Cc1ccc(I)cc1)C(=O)O)c1ccc(Br)cc1` (configuration not stated), for which the TGI is greater than 100 µM.

Values taken from PubChem BioAssay (NCI).
